Legend:
Type in all cases: in vivo
[1] = tested on: Amaranthus tamariscinus (AMATA); assay: Post-emergence application in greenhouse trials; settings: 7 DAT
Experimental: (§1) The culture containers used were plastic pots containing loamy sand with approximately 3.0% of humus as substrate. The seeds of the test plants were sown separately for each species.
(§2) For the post-emergence treatment, the test plants were grown to a plant height as indicated below, depending on the plant habit, and only then treated with the active compounds which had been suspended or emulsified in water. To this end, the test plants were either sown directly, and grown in the same containers, or they were first grown separately as seedlings and transplanted into the test containers a few days prior to treatment.
(§3) Depending on the species, the plants were kept at 10-25° C. and 20-35° C., respectively. The test period extended over 2 to 4 weeks. During this time, the plants were tended and their response to the individual treatments was evaluated.
(§4) Evaluation was carried out using a scale from 0 to 100. 100 means no emergence of the plants, or complete destruction of at least the above-ground parts, and 0 means no damage or normal course of growth. A good herbicidal activity is given at values of at least 70, and very good herbicidal activity is given at values of at least 85.
(§5) Herbicide A-1 and topramezone were, together with addition of 0.5 v/v % MSO (methylated sed oil) as adjuvant, formulated in water as distribution medium (water volume 200 l/ha) and sprayed with commercial flat fan nozzles.
(§6) Herbicide A-1 (342 g/l), topramezone (336 g/l) and DMTA-p (720 g/l) were, together with addition of 0.5 v/v % MSO (methylated sed oil) as adjuvant, formulated in water as distribution medium (water volume 200 l/ha) and sprayed with commercial flat fan nozzles.

[2] = tested on: Commelina benghalenis (COMBE); assay: Post-emergence application in greenhouse trials
Experimental: as §1, §2, §3, §4, §5, §6

Setaria virids (SETVI) = assay: Post-emergence application in greenhouse trials
Experimental: as §1, §2, §3, §4, §5, §6

[3] = tested on: Erigeron canadensis (ERICA); assay: Post-emergence application in greenhouse trials; settings: 20 DAT
Experimental: as §1, §2, §3, §4, §5, §6

[4] = tested on: Abutilon theophrasti (ABUTH); assay: Post-emergence application in greenhouse trials; settings: 7 DAT
Experimental: as §1, §2, §3, §4, §5, §6

Eleusine indica (ELEIN) = assay: Post-emergence application in greenhouse trials; settings: 7 DAT
Experimental: as §1, §2, §3, §4, §5, §6

Glycine max (GLXMA) [5] = assay: Post-emergence application in greenhouse trials; settings: 7 DAT
Experimental: as §1, §2, §3, §4, §5, §6

[6] = tested on: Digitaria sanguinalis (DIGSA); assay: Post-emergence application in greenhouse trials; settings: 20 DAT
Experimental: as §1, §2, §3, §4, §5, §6

Kochia scoparia (KCHSC) = assay: Post-emergence application in greenhouse trials; settings: 20 DAT
Experimental: as §1, §2, §3, §4, §5, §6

Zea mays (ZEAMX) [7] = assay: Post-emergence application in greenhouse trials
Experimental: as §1, §2, §3, §4, §5, §6

[8] = tested on: Brachiaria decumbens (BRADC (BRARU)); assay: Post-emergence application in greenhouse trials
Experimental: as §1, §2, §3, §4, §5, §6

Avena fatua (AVEFA) = assay: Post-emergence application in greenhouse trials
Experimental: as §1, §2, §3, §4, §5, §6

[9] = tested on: Abutilon theophrasti (ABUTH); assay: Post-emergence application in field trials; settings: height 10-12 cm
Excerpt: (§7) Post-Emergence Application of Herbicide A-1 (A-1) and Topramezone (B-1) in Field Trials
(§8) Herbicide A-1 (342 g/l) and topramezone (336 g/l) were, together with addition of 0.25 v/v % MSO (methylated sed oil) as adjuvant, formulated in water as distribution medium (water volume 200 l/ha) and sprayed with commercial flat fan nozzles.

Glycine max (GLXMA) [10] = assay: Post-emergence application in field trials; settings: height 7-11 cm, 7 DAT
Excerpt: as §7, §8

[11] = tested on: Digitaria sanguinalis (DIGSA); assay: Post-emergence application in field trials; settings: 21 DAT, height 10-15 cm
Excerpt: as §7, §8

Hordeum vulgare (HORVX) = assay: Post-emergence application in field trials; settings: height 20-25 cm
Excerpt: as §7, §8

[12] = tested on: Setaria verticillata (SETVE); assay: Post-emergence application in field trials; settings: height 8-16 cm
Excerpt: as §7, §8

Zea mays (ZEAMX) [13] = assay: Post-emergence application in field trials; settings: height 50-60 cm
Excerpt: as §7, §8

[14] = 20 DAT, growth stage 12, 0.5 g ai/ha
[15] = 20 DAT, growth stage 12, 1 g ai/ha
[16] = 7 DAT, growth stage 11, 2 g ai/ha
[17] = 7 DAT, growth stage 11, 3.125 g ai/ha
[18] = 7 DAT, growth stage 11, 120 g ai/ha

CCOC(=O)COc1ccccc1Oc1nc(-n2c(=O)cc(C(F)(F)F)n(C)c2=O)c(F)cc1Cl [A-1, ethyl 2-[2-[[3-chloro-5-fluoro-6-[3-methyl-2,6-dioxo-4-(trifluoromethyl)pyrimidin-1-yl]-2-pyridyl]oxy]phenoxy]acetate]
% herbicidal activity ([1]; growth stage 14, A-1 1 g ai/ha): 80% | % herbicidal activity ([2]; 20 DAT, growth stage 11, 1 g ai/ha): 5% | % herbicidal activity ([2]; 21 DAT, growth stage 13, 1 g ai/ha): 80% | % herbicidal activity (Setaria virids (SETVI); [14]): 10% | % herbicidal activity (Setaria virids (SETVI); [15]): 15% | % herbicidal activity (Setaria virids (SETVI); SETVI, growth stage 12, A-1 1 g ai/ha, 7 DAT): 15% | % herbicidal activity (Setaria virids (SETVI); SETVI, growth stage 12, A-1 2 g ai/ha, 7 DAT): 25% | % herbicidal activity ([3]; growth stage 19, 0.5 g ai/ha): 0% | % herbicidal activity ([3]; growth stage 19, 2 g ai/ha): 40% | % herbicidal activity ([4]; growth stage 15, 0.5 g ai/ha): 85% | % herbicidal activity ([4]; ABUTH, growth stage 13, A-1 0.25 g ai/ha): 10% | % herbicidal activity ([4]; ABUTH, growth stage 13, A-1 1 g ai/ha): 50% | % herbicidal activity (Eleusine indica (ELEIN); growth stage 13, A-1 1 g ai/ha): 45% | % herbicidal activity (Glycine max (GLXMA) [5]; growth stage 18, 1 g ai/ha): 90% | % herbicidal activity ([6]; growth stage 13, 0.25 g ai/ha): 5% | % herbicidal activity (Kochia scoparia (KCHSC); growth stage 24, 0.25 g ai/ha): 0% | % herbicidal activity (Zea mays (ZEAMX) [7]; 7 DAT, growth stage 12, 2 g ai/ha): 60% | % herbicidal activity (Zea mays (ZEAMX) [7]; 21 DAT, growth stage 12, 2 g ai/ha): 40% | % herbicidal activity [8, 16]: 50% | % herbicidal activity ([8]; 20 DAT, growth stage 12, 0.25 g ai/ha): 5% | % herbicidal activity [8, 14]: 15% | % herbicidal activity [8, 15]: 30% | % herbicidal activity (Avena fatua (AVEFA); [16]): 55% | % herbicidal activity (Avena fatua (AVEFA); 21 DAT, growth stage 11, 2 g ai/ha): 30% | % herbicidal activity ([9]; 21 DAT, 18 g ai/ha): 92% | % herbicidal activity ([9]; 42 DAT, 18 g ai/ha): 90% | % herbicidal activity ([9]; ABUTH, A-1 18 g ai/ha, 7 DAT): 90% | % herbicidal activity (Glycine max (GLXMA) [10]; A-1 18 g ai/ha): 93% | % herbicidal activity ([11]; 12.5 g ai/ha): 70% | % herbicidal activity (Hordeum vulgare (HORVX); 21 DAT, 12.5 g ai/ha): 90% | % herbicidal activity (Hordeum vulgare (HORVX); 21 DAT, 18 g ai/ha): 95% | % herbicidal activity (Hordeum vulgare (HORVX); HORVX, A-1 12.5 g ai/ha, 7 DAT): 70% | % herbicidal activity ([12]; 21 DAT, 12.5 g ai/ha): 45% | % herbicidal activity ([12]; 42 DAT, 12.5 g ai/ha): 30% | % herbicidal activity (Zea mays (ZEAMX) [13]; 21 DAT, 12.5 g ai/ha): 70% | % herbicidal activity (Zea mays (ZEAMX) [13]; 21 DAT, 18 g ai/ha): 75% | % herbicidal activity (Zea mays (ZEAMX) [13]; 28 DAT, 12.5 g ai/ha): 50% | % herbicidal activity (Zea mays (ZEAMX) [13]; 28 DAT, 18 g ai/ha): 60%

Cc1c(C(=O)c2cnn(C)c2O)ccc(S(C)(=O)=O)c1C1=NOCC1 [B-1, topramezone]
% herbicidal activity ([1]; growth stage 14, B-1 6.25 g ai/ha): 80% | % herbicidal activity ([2]; 20 DAT, growth stage 11, 6.25 g ai/ha): 10% | % herbicidal activity ([2]; 21 DAT, growth stage 13, 3.125 g ai/ha): 35% | % herbicidal activity (Setaria virids (SETVI); 20 DAT, growth stage 12, 3.12 g ai/ha): 70% | % herbicidal activity (Setaria virids (SETVI); SETVI, growth stage 12, B-1 6.25 g ai/ha, 7 DAT): 75% | % herbicidal activity ([3]; growth stage 19, 3.12 g ai/ha): 25% | % herbicidal activity ([3]; growth stage 19, 6.25 g ai/ha): 55% | % herbicidal activity ([4]; growth stage 15, 3.125 g ai/ha): 50% | % herbicidal activity ([4]; ABUTH, growth stage 13, B-1 3.12 g ai/ha): 45% | % herbicidal activity (Eleusine indica (ELEIN); growth stage 13, B-1 3.12 g ai/ha): 80% | % herbicidal activity (Glycine max (GLXMA) [5]; growth stage 18, 3.125 g ai/ha): 20% | % herbicidal activity ([6]; growth stage 13, 3.12 g ai/ha): 85% | % herbicidal activity (Kochia scoparia (KCHSC); growth stage 24, 6.25 g ai/ha): 60% | % herbicidal activity (Zea mays (ZEAMX) [7]; 7 DAT, growth stage 12, 3.125 g ai/ha): 5% | % herbicidal activity (Zea mays (ZEAMX) [7]; 21 DAT, growth stage 12, 3.125 g ai/ha): 0% | % herbicidal activity [8, 17]: 50% | % herbicidal activity ([8]; 20 DAT, growth stage 12, 6.25 g ai/ha): 75% | % herbicidal activity (Avena fatua (AVEFA); [17]): 10% | % herbicidal activity (Avena fatua (AVEFA); 21 DAT, growth stage 11, 3.125 g ai/ha): 10% | % herbicidal activity ([9]; 21 DAT, 12.5 g ai/ha): 60% | % herbicidal activity ([9]; 21 DAT, 18 g ai/ha): 65% | % herbicidal activity ([9]; 42 DAT, 12.5 g ai/ha): 60% | % herbicidal activity ([9]; 42 DAT, 18 g ai/ha): 65% | % herbicidal activity ([9]; ABUTH, B-1 12.5 g ai/ha, 7 DAT): 50% | % herbicidal activity ([9]; ABUTH, B-1 18 g ai/ha, 7 DAT): 55% | % herbicidal activity (Glycine max (GLXMA) [10]; B-1 12.5 g ai/ha): 45% | % herbicidal activity (Glycine max (GLXMA) [10]; B-1 18 g ai/ha): 45% | % herbicidal activity ([11]; 18 g ai/ha): 40% | % herbicidal activity (Hordeum vulgare (HORVX); 21 DAT, 12.5 g ai/ha): 0% | % herbicidal activity (Hordeum vulgare (HORVX); 21 DAT, 18 g ai/ha): 10% | % herbicidal activity (Hordeum vulgare (HORVX); HORVX, B-1 18 g ai/ha, 7 DAT): 20% | % herbicidal activity ([12]; 21 DAT, 18 g ai/ha): 45% | % herbicidal activity ([12]; 42 DAT, 18 g ai/ha): 40% | % herbicidal activity (Zea mays (ZEAMX) [13]; 21 DAT, 12.5 g ai/ha): 0% | % herbicidal activity (Zea mays (ZEAMX) [13]; 21 DAT, 18 g ai/ha): 0% | % herbicidal activity (Zea mays (ZEAMX) [13]; 28 DAT, 12.5 g ai/ha): 0% | % herbicidal activity (Zea mays (ZEAMX) [13]; 28 DAT, 18 g ai/ha): 0%

COC[C@H](C)N(C(=O)CCl)c1c(C)csc1C [C-23, dimethenamid-p (DMTA-p)]
% herbicidal activity ([2]; 21 DAT, growth stage 13, 120 g ai/ha): 10% | % herbicidal activity ([4]; growth stage 15, 120 g ai/ha): 0% | % herbicidal activity (Glycine max (GLXMA) [5]; growth stage 18, 120 g ai/ha): 0% | % herbicidal activity (Zea mays (ZEAMX) [7]; 7 DAT, growth stage 12, 120 g ai/ha): 0% | % herbicidal activity (Zea mays (ZEAMX) [7]; 21 DAT, growth stage 12, 120 g ai/ha): 0% | % herbicidal activity [8, 18]: 10% | % herbicidal activity (Avena fatua (AVEFA); [18]): 0% | % herbicidal activity (Avena fatua (AVEFA); 21 DAT, growth stage 11, 120 g ai/ha): 40%
